Entries after “also recorded” stand apart in the source; their conditions may differ.
Legend:
[1] = tested on: SH-SY5Y cells; assay: Respiration / oxygen consumption rate (OCR), Seahorse Extracellular Flux analyzer; type: cell-based, human; conditions: for Effect on respiration (OCR), in words: SH-SY5Y cultured neuronal cells; for Increase of cellular respiration and/or glycolysis, near maximum possible levels: preliminary testing, FIGS. 2 and 3; for ATP-linked Respiration / Change in OCR post injection (1) / Maximum OCR / Post-Oligomycin (Leak Rate) OCR: average of three experiments
Protocol: (§1) In these experiments, oligomycin, FCCP, rotenone/antimycin, and 2-deoxyglucose were used to determine the proportion of oxygen that was consumed as part of the mitochondrial “leak” and “ATP production”; maximum and spare flux rates were also determined using standard established flux analysis protocols. […] FIG. 1D schematically summarizes this pathway.
(§2) For these measurements, oligomycin, FCCP, and rotenone/antimycin were used to determine mitochondrial respiration leak rates, the maximum oxygen consumption rate, and the non-mitochondrial oxygen consumption rate. […] The dose-response was logarithmic over a test range of 0.1 to 2 mM (FIG. 4). FIG. 3A illustrates respiration peaking at ˜40% enhancement, which is the maximum possible when mitochondria are chemically uncoupled.

[2] = tested on: SH-SY5Y cells; assay: Glycolysis flux (ECAR), Seahorse Extracellular Flux analyzer; type: cell-based, human
Protocol: as §1, §2

[3] = in solution, especially in the presence of amino acids; cited from earlier work
[4] = mice, cited from earlier work
[5] = cited from earlier work

## CC(CC(=O)O)OC(=O)CC(=O)C(=O)OC(C)CC(=O)O (centres unmarked) [OAA(BHB)2, 3,3′-((2-oxosuccinyl)bis(oxy))dibutyric acid]
[1]; 1-mM dose, SH-SY5Y, FIG. 2, averages of three experiments
  Increase in cell respiration: ~30%
[1]
  Effect on respiration (OCR), in words: increases respiration
  Increase of cellular respiration and/or glycolysis, near maximum possible levels: ~40%

## CC(O)COC(=O)CC(=O)C(=O)OCC(C)O (centres unmarked) [OAA(PG)2, Bis(2-hydroxypropyl) 2-oxosuccinate]
[1]; 0.1 mM, SH-SY5Y
  ATP-linked Respiration: 50.1%
  Change in OCR post injection (1): 101.7%
  Maximum OCR: 98.92%
  Post-Oligomycin (Leak Rate) OCR: 51.58%
[1]; 0.25 mM, SH-SY5Y
  ATP-linked Respiration: 50.66%
  Change in OCR post injection (1): 101.1%
  Maximum OCR: 93.08%
  Post-Oligomycin (Leak Rate) OCR: 50.46%
[1]; 0.5 mM, SH-SY5Y
  ATP-linked Respiration: 44.78%
  Change in OCR post injection (1): 103.9%
  Maximum OCR: 93.62%
  Post-Oligomycin (Leak Rate) OCR: 59.15%
[1]; 1 mM, SH-SY5Y
  ATP-linked Respiration: 52.7%
  Change in OCR post injection (1): 106.5%
  Maximum OCR: 81.46%
  Post-Oligomycin (Leak Rate) OCR: 53.8%
[1]; 2 mM, SH-SY5Y
  ATP-linked Respiration: 68.89%
  Change in OCR post injection (1): 119.8%
  Maximum OCR: 91.73%
  Post-Oligomycin (Leak Rate) OCR: 50.86%
[1]
  Effect on respiration (OCR), in words: enhance respiration
  Increase of cellular respiration and/or glycolysis, near maximum possible levels: ~40%
[1]; SH-SY5Y, FIG. 3A, maximum possible when mitochondria are chemically uncoupled
  Peak enhancement of respiration: ~40%
[1]; test range of 0.1 to 2 mM, FIG. 4
  Shape of dose-response of respiration: logarithmic
[2]; 1, 2 and 5 mM OAA(PG)2, SH-SY5Y, FIG. 3B
  Effect on glycolysis (ECAR): without concomitantly creating a statistical reduction in the glycolysis flux; also recorded: insignificant effect on glycolysis

## O=C(O)CC(=O)C(=O)O [OAA, 2-oxosuccinic acid]
[3]
  Decarboxylation rate into pyruvate: ~1 %/min
[4]; 1 g/kg/day and 2 g/kg/day
  Brain changes: induced unequivocal brain changes
[4]; intraperitoneal (IP) injection
  Activity of NFκB transcription factor (neuroinflammation): lessened activity
  Hippocampal neurogenesis: increased hippocampal neurogenesis
  Insulin pathway signaling in brain: enhanced insulin pathway signaling
  Mitochondrial biogenesis parameters in brain: promoted mitochondrial biogenesis parameters
[5]; AD clinical study, doses up to 1 gram BID
  Safety profile: excellent safety profile
[5]; PK study, 100 mg BID, AD participants
  Plasma level increase: did not reveal a reliable plasma level increase
[1]; OAA treatment, SH-SY5Y, FIG. 1C
  Increase in cellular respiration: about 50%
[1]
  Effect on respiration (OCR), in words: increase aspects of mitochondrial respiration flux
[2]; 2 mM OAA, SH-SY5Y, FIG. 1B
  Increase in glycolysis flux capacity: about 50%
[2]; 2 mM, SH-SY5Y, FIG. 1B
  Effect on glycolysis flux: enhances rather than impedes glycolysis flux

## CC(O)C(=O)O (centres unmarked) [lactate, reference compound]
[1]; experiments not further specified
  Effect on respiration, in words: effectively promote respiration

From patent US11952337B2, “Bioenergetically active esters for health and disease” (University of Kansas, priority 2018, dated 2024)
